Measurements reported in the NIST ThermoML archive (doi:10.1021/je2000205).

Assay: mn = molality of the nth substance listed, in mol/kg
Conditions: 100 kPa, Liquid; for viscosity: Capillary tube (Ostwald / Ubbelohde) method; for speed of sound: Sing-around technique in a fixed-path interferometer; for mass density: Vibrating tube method

O=C[C@H](O)[C@@H](O)[C@H](O)[C@H](O)CO [D-glucose] + O
m1 = 1.13
Conditions	mass density [kg/m3]	speed of sound [m/s]	viscosity [mPa·s]
298.15 K	1065.07	1564.8	1.489
303.15 K	1063.3	1574.3	1.278
308.15 K	1061.36	1582.4	1.147
313.15 K	1059.24	1589.1	0.9944
318.15 K	1056.98	1594.4	0.9095
323.15 K	1054.25	1598.5	0.8291

OC[C@H]1O[C@@](CO)(O[C@H]2O[C@H](CO)[C@@H](O)[C@H](O)[C@H]2O)[C@@H](O)[C@@H]1O [D-sucrose] + O
Conditions	mass density, m1 = 1.27 [kg/m3]	speed of sound, m1 = 1.13 [m/s]	viscosity, m1 = 1.13 [mPa·s]
298.15 K	1127.37	1607.9	2.716
303.15 K	1125.37	1615.6	2.376
308.15 K	1123.2	1621.9	2.075
313.15 K	1120.73	1627	1.795
318.15 K	1118.18	1630.8	1.587
323.15 K	1115.44	1633.3	1.394
